Experiment: mn = molality of the nth substance listed, in mol/kg
Conditions: 101.3 kPa, Liquid

O [water] + COC(=O)[C@@H](N)C(C)C.Cl
Conditions	speed of sound [m/s]
278.15 K, Frequency=2 MHz, Linear variable-path acoustic interferometer, m2 = 0	1426.2

Conditions	mass density [kg/m3]
278.15 K, Pycnometric method, m2 = 0	999.96

O [water] + COC(=O)[C@H](C)N.Cl
Conditions	speed of sound [m/s]
278.15 K, Frequency=2 MHz, Linear variable-path acoustic interferometer, m2 = 0	1426.2

Conditions	mass density [kg/m3]
278.15 K, Pycnometric method, m2 = 0	999.96

COC(=O)[C@@H](N)C(C)C.Cl [methyl L-valinate hydrochloride] + O
Conditions	speed of sound [m/s]
278.15 K, Frequency=2 MHz, Linear variable-path acoustic interferometer, m1 = 0.0389	1431.7
278.15 K, Frequency=2 MHz, Linear variable-path acoustic interferometer, m1 = 0.0499	1433.3
278.15 K, Frequency=2 MHz, Linear variable-path acoustic interferometer, m1 = 0.0592	1434.2
278.15 K, Frequency=2 MHz, Linear variable-path acoustic interferometer, m1 = 0.0705	1436.3
278.15 K, Frequency=2 MHz, Linear variable-path acoustic interferometer, m1 = 0.0811	1437.4
278.15 K, Frequency=2 MHz, Linear variable-path acoustic interferometer, m1 = 0.0888	1438.7
278.15 K, Frequency=2 MHz, Linear variable-path acoustic interferometer, m1 = 0.1015	1441.1
278.15 K, Frequency=2 MHz, Linear variable-path acoustic interferometer, m1 = 0.1094	1441.3
278.15 K, Frequency=2 MHz, Linear variable-path acoustic interferometer, m1 = 0.1204	1443.8
278.15 K, Frequency=2 MHz, Linear variable-path acoustic interferometer, m1 = 0.1307	1445.3
278.15 K, Frequency=2 MHz, Linear variable-path acoustic interferometer, m1 = 0.1428	1446.5
278.15 K, Frequency=2 MHz, Linear variable-path acoustic interferometer, m1 = 0.1528	1448
288.15 K, Frequency=3 MHz, Sing-around technique in a fixed-path interferometer, m1 = 0.0507	1472.3
288.15 K, Frequency=3 MHz, Sing-around technique in a fixed-path interferometer, m1 = 0.0607	1473.5
288.15 K, Frequency=3 MHz, Sing-around technique in a fixed-path interferometer, m1 = 0.0699	1474.5
288.15 K, Frequency=3 MHz, Sing-around technique in a fixed-path interferometer, m1 = 0.0798	1475.7
288.15 K, Frequency=3 MHz, Sing-around technique in a fixed-path interferometer, m1 = 0.09	1476.9
288.15 K, Frequency=3 MHz, Sing-around technique in a fixed-path interferometer, m1 = 0.0999	1478.3
288.15 K, Frequency=3 MHz, Sing-around technique in a fixed-path interferometer, m1 = 0.1099	1479.2
288.15 K, Frequency=3 MHz, Sing-around technique in a fixed-path interferometer, m1 = 0.1201	1480.4
288.15 K, Frequency=3 MHz, Sing-around technique in a fixed-path interferometer, m1 = 0.1295	1481.6
288.15 K, Frequency=3 MHz, Sing-around technique in a fixed-path interferometer, m1 = 0.1399	1482.8
288.15 K, Frequency=3 MHz, Sing-around technique in a fixed-path interferometer, m1 = 0.1497	1484.3
288.15 K, Frequency=3 MHz, Sing-around technique in a fixed-path interferometer, m1 = 0.16	1485.9
298.15 K, Frequency=3 MHz, Sing-around technique in a fixed-path interferometer, m1 = 0.0405	1501.4
298.15 K, Frequency=3 MHz, Sing-around technique in a fixed-path interferometer, m1 = 0.0504	1502.5
298.15 K, Frequency=3 MHz, Sing-around technique in a fixed-path interferometer, m1 = 0.06	1503.7
298.15 K, Frequency=3 MHz, Sing-around technique in a fixed-path interferometer, m1 = 0.0703	1504.9
298.15 K, Frequency=3 MHz, Sing-around technique in a fixed-path interferometer, m1 = 0.0804	1505.9
298.15 K, Frequency=3 MHz, Sing-around technique in a fixed-path interferometer, m1 = 0.0903	1507.1
298.15 K, Frequency=3 MHz, Sing-around technique in a fixed-path interferometer, m1 = 0.1001	1508.1
298.15 K, Frequency=3 MHz, Sing-around technique in a fixed-path interferometer, m1 = 0.1103	1509.6
298.15 K, Frequency=3 MHz, Sing-around technique in a fixed-path interferometer, m1 = 0.12	1510.3
298.15 K, Frequency=3 MHz, Sing-around technique in a fixed-path interferometer, m1 = 0.1305	1511.4
298.15 K, Frequency=3 MHz, Sing-around technique in a fixed-path interferometer, m1 = 0.1401	1513
298.15 K, Frequency=3 MHz, Sing-around technique in a fixed-path interferometer, m1 = 0.1514	1513.8

Conditions	mass density [kg/m3]
278.15 K, Pycnometric method, m1 = 0.0389	1001.17
278.15 K, Pycnometric method, m1 = 0.0499	1001.51
278.15 K, Pycnometric method, m1 = 0.0592	1001.8
278.15 K, Pycnometric method, m1 = 0.0705	1002.15
278.15 K, Pycnometric method, m1 = 0.0811	1002.48
278.15 K, Pycnometric method, m1 = 0.0888	1002.72
278.15 K, Pycnometric method, m1 = 0.1015	1003.1
278.15 K, Pycnometric method, m1 = 0.1094	1003.35
278.15 K, Pycnometric method, m1 = 0.1204	1003.7
278.15 K, Pycnometric method, m1 = 0.1307	1004
278.15 K, Pycnometric method, m1 = 0.1428	1004.38
278.15 K, Pycnometric method, m1 = 0.1528	1004.7
288.15 K, Vibrating tube method, m1 = 0.0507	1000.66
288.15 K, Vibrating tube method, m1 = 0.0607	1000.96
288.15 K, Vibrating tube method, m1 = 0.0699	1001.25
288.15 K, Vibrating tube method, m1 = 0.0798	1001.55
288.15 K, Vibrating tube method, m1 = 0.09	1001.87
288.15 K, Vibrating tube method, m1 = 0.0999	1002.17
288.15 K, Vibrating tube method, m1 = 0.1099	1002.46
288.15 K, Vibrating tube method, m1 = 0.1201	1002.78
288.15 K, Vibrating tube method, m1 = 0.1295	1003.07
288.15 K, Vibrating tube method, m1 = 0.1399	1003.4
288.15 K, Vibrating tube method, m1 = 0.1497	1003.7
288.15 K, Vibrating tube method, m1 = 0.16	1004
298.15 K, Vibrating tube method, m1 = 0.0405	998.23
298.15 K, Vibrating tube method, m1 = 0.0504	998.52
298.15 K, Vibrating tube method, m1 = 0.06	998.78
298.15 K, Vibrating tube method, m1 = 0.0703	999.08
298.15 K, Vibrating tube method, m1 = 0.0804	999.37
298.15 K, Vibrating tube method, m1 = 0.0903	999.66
298.15 K, Vibrating tube method, m1 = 0.1001	999.92
298.15 K, Vibrating tube method, m1 = 0.1103	1000.24
298.15 K, Vibrating tube method, m1 = 0.12	1000.51
298.15 K, Vibrating tube method, m1 = 0.1305	1000.78
298.15 K, Vibrating tube method, m1 = 0.1401	1001.06
298.15 K, Vibrating tube method, m1 = 0.1514	1001.39
